# Results: patent publication US10736968B2, “Cellular signalling inhibitors, their formulations and methods thereof” (INVICTUS ONCOLOGY PVT. LTD., priority 2016, dated 2020)
# Tested on: macrophages
# Assay: Repolarization of IL4-skewed M2 macrophages to M1-like state after washout (FACS)
# Format: cell-based
# Details: IL4 24 hours, inhibitor 4 hours, washed, fresh media 12-72 hours
# Experimental: Activity Studies of Compound of Formula I • Efficacy of BLN101 vs BLZ945 on the ability to inhibit CSF1R in vitro is studied. RAW264.7 cells are treated with BLZ945 (67 nM) or BLN101 (67 nM) for different time points, at the end of which the cells were exposed to CSF1 (10 ng/ml) for 20 min. The cells were then lysed and analyzed for phosphorylated CSF1R levels. […] Efficacy of BLN101 (in formulation AK750) vs BLZ945 on increase in iNOS expression in vitro is studied. It is observed that exposure to Tumor Conditioned Media over 24 h decreases INOS levels. Measurement of the expression of iNOS in RAW264.7 cells at different time points after treatment with B-16-tumour conditioned media followed by BLZ-945 or BLN101 (as AK750 formulation) treatment across different time points. […] Treatment of monocytes with IL4 is known to facilitate the differentiation of monocytes into macrophages. Further, activation of CSF1R skews it to a M2 phenotype. […] At different time points analysis of the cells for expression of markers CD11b+CD206+, CD11b+MHC-II+, CD11b+CD86+ and CD11b+CD80+ on the cells using flow cytometry. […] (FIG. 4). […] At different time-points, the cells are harvested and analyzed the population for M1 (MHCII+, CD86+, CD80+) or M2 (CD206+) markers using fluorescence activated cell sorting (FIG. 5d). […]
smiles,measurement,value
CNC(=O)c1cc(Oc2ccc3nc(N[C@@H]4CCCC[C@H]4O)sc3c2)ccn1 [BLZ-945],"M1 markers (MHCII+, CD86+, CD80+)",did not increase the M1 markers
same,M2 phenotype (CD206+),"at early time-points is observed, but this effect was lost at later time points"
